# US20020137929A1, “1 - (3-heterocyclylphenyl) isothiourea, -isourea, -guanidine and -amidine herbicidal agents” (Intellectual Property Department, BASF Aktiengesellschaft, priority 1998, published 2002)
# Experiments:
# [1] = system: CASOB (Sicklepod); assay: Postemergence herbicidal evaluation; assay type: in vivo, Cassia obtusifolia
# How it was run: (§1)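 Seedlings grown about two weeks were sprayed at 40 psi with compound dispersed in 50/50 acetone/water plus 0.5% TWEEN 20, at about 0.0156 to 0.500 kg/ha. Plants were kept in the greenhouse and scored 4–5 weeks later on a 0–9 visual scale against untreated controls.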
# [2] = system: ECHORC (Watergrass (Calif.)); assay: Postemergence weed control under flooded paddy conditions; assay type: in vivo, Echinochloa oryzoides; settings: postemergence weeds, 3-4 weeks after treatment
# How it was run: (§2)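 Herbicidal effect is judged by eye on a 0–9 scale versus control, 3–4 weeks after dosing. Dosing is into flood water kept 1.5–3 cm over the soil, at about 0.0313–0.500 kg/ha in aqueous/acetone 50/50 v/v, on 3–5 cm weeds and 1.5–2.5-leaf rice seedlings.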
# [3] = system: ORYSAT (Rice, Tebonnet); assay: Preemergence herbicidal evaluation; assay type: in vivo, Oryza sativa, (L.) Tebonnet; settings: rated 4-5 weeks after treatment
# How it was run: (§3)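 Sown cups got a single aqueous acetone spray of test compound (roughly 0.0156–0.500 kg/ha) before seedlings emerged. Evaluation, 4–5 weeks on, used a 0–9 visual scale covering plant stand, vigor, size, malformation, chlorosis and general appearance compared with controls.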
# [4] = system: GALAP (Galium); assay: Postemergence herbicidal evaluation; assay type: in vivo, Galium aparine
# How it was run: as §1
# [5] = system: CYPSE (Flatsedge); assay: Postemergence weed control under flooded paddy conditions; assay type: in vivo, Cyperus serotinus; settings: postemergence weeds, 3-4 weeks after treatment
# How it was run: as §2
# [6] = system: CYPSE (Flatsedge); assay: Preemergence weed control under flooded paddy conditions; assay type: in vivo, Cyperus serotinus; settings: rated 3-4 weeks after treatment
# How it was run: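 Greenhouse paddy assay. Acetone/water (50/50 v/v) solutions dosed into flood water, equivalent to about 0.0313 to 0.500 kg/ha active ingredient, over seeds planted 0.5 cm deep in silt loam. Score: 0-9 visual, based on stand, vigor, malformation, size and chlorosis, 3 to 4 weeks after treatment.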
# [7] = system: TRZAWR (Wheat, Winter, cv Riband); assay: Preemergence herbicidal evaluation; assay type: in vivo, Triticum aestivum; settings: rated 4-5 weeks after treatment
# How it was run: as §3
# [8] = system: CHEAL (Lambsquarters, Common); assay: Preemergence herbicidal evaluation; assay type: in vivo, Chenopodium album; settings: rated 4-5 weeks after treatment
# How it was run: as §3
# [9] = system: ZEAMX (Corn, Field); assay: Postemergence herbicidal evaluation; assay type: in vivo, Zea mays
# How it was run: as §1
# [10] = system: ECHORC (Watergrass (Calif.)); assay: Preemergence weed control under flooded paddy conditions; assay type: in vivo, Echinochloa oryzoides; settings: rated 3-4 weeks after treatment
# How it was run: (§4)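 Visual injury scored 0-9 against control three to four weeks post-treatment, greenhouse-grown. Application: acetone/water (50/50) solutions dosed directly into flood water (1.5-3 cm over silt loam, planted top 0.5 cm), roughly 0.0313 to 0.500 kg/ha active ingredient.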
# [11] = system: AMBEL (Ragweed, Common); assay: Preemergence herbicidal evaluation; assay type: in vivo, Ambrosia artemisifolia; settings: rated 4-5 weeks after treatment
# How it was run: as §3
# [12] = system: IPOHE (Morningglory, Ivyleaf); assay: Preemergence herbicidal evaluation; assay type: in vivo, Ipomoea hederacea; settings: rated 4-5 weeks after treatment
# How it was run: as §3
# [13] = system: CYPIR (Rice Flatsedge); assay: Preemergence weed control under flooded paddy conditions; assay type: in vivo, Cyperus iria; settings: rated 3-4 weeks after treatment
# How it was run: as §4
# [14] = system: ZEAMX (Corn, Field); assay: Preemergence herbicidal evaluation; assay type: in vivo, Zea mays; settings: rated 4-5 weeks after treatment
# How it was run: as §3
smiles,measurement,setting,value
"O=C(O)CC1SC(=Nc2cc(N3C(=O)C4=C(CCCC4)C3=O)c(F)cc2Cl)N(CC(=O)O)C1=O (stereo not drawn) [Compound 48, 2-{[2-Chloro-5-(1-cyclohexene-1,2-dicarboximido)-4-fluorophenyl]imino}-4-oxo-3,5-thiazolidinediacetic acid]",Postemergence herbicidal rating CASOB,[1]; Rate 0.0156 kg/ha,0.0
same,Postemergence herbicidal rating CASOB,[1]; Rate 0.0313 kg/ha,2.0
same,Postemergence herbicidal rating CASOB,[1]; Rate 0.0625 kg/ha,3.0
same,Herbicidal rating ECHORC,[2]; rate 0.1250 kg/ha,3.0
same,Herbicidal rating ECHORC,[2]; rate 0.2500 kg/ha,6.0
same,Preemergence herbicidal rating ORYSAT,[3]; rate 0.0156 kg/ha,0.0
same,Preemergence herbicidal rating ORYSAT,[3]; rate 0.0313 kg/ha,0.0
same,Preemergence herbicidal rating ORYSAT,[3]; rate 0.0625 kg/ha,0.0
same,Preemergence herbicidal rating ORYSAT,[3]; rate 0.1250 kg/ha,0.0
same,Preemergence herbicidal rating ORYSAT,[3]; rate 0.2500 kg/ha,3.0
same,Postemergence herbicidal rating GALAP,[4]; Rate 0.0156 kg/ha,0.0
same,Postemergence herbicidal rating GALAP,[4]; Rate 0.0313 kg/ha,0.0
same,Postemergence herbicidal rating GALAP,[4]; Rate 0.0625 kg/ha,0.0
same,Herbicidal rating CYPSE,[5]; rate 0.1250 kg/ha,0.0
same,Herbicidal rating CYPSE,[5]; rate 0.2500 kg/ha,0.0
same,Herbicidal rating CYPSE,[6]; 0.1250 kg/ha,0.0
same,Herbicidal rating CYPSE,[6]; 0.2500 kg/ha,0.0
same,Preemergence herbicidal rating TRZAWR,[7]; rate 0.0156 kg/ha,0.0
same,Preemergence herbicidal rating TRZAWR,[7]; rate 0.0313 kg/ha,0.0
same,Preemergence herbicidal rating TRZAWR,[7]; rate 0.0625 kg/ha,0.0
same,Preemergence herbicidal rating TRZAWR,[7]; rate 0.1250 kg/ha,0.0
same,Preemergence herbicidal rating TRZAWR,[7]; rate 0.2500 kg/ha,2.0
same,Preemergence herbicidal rating CHEAL,[8]; rate 0.0156 kg/ha,9.0
same,Preemergence herbicidal rating CHEAL,[8]; rate 0.0313 kg/ha,9.0
same,Preemergence herbicidal rating CHEAL,[8]; rate 0.0625 kg/ha,9.0
same,Preemergence herbicidal rating CHEAL,[8]; rate 0.1250 kg/ha,9.0
same,Preemergence herbicidal rating CHEAL,[8]; rate 0.2500 kg/ha,9.0
same,Postemergence herbicidal rating ZEAMX,[9]; Rate 0.0156 kg/ha,5.5
same,Postemergence herbicidal rating ZEAMX,[9]; Rate 0.0313 kg/ha,5.5
same,Postemergence herbicidal rating ZEAMX,[9]; Rate 0.0625 kg/ha,6.5
same,Herbicidal rating ECHORC,[10]; 0.1250 kg/ha,3.0
same,Herbicidal rating ECHORC,[10]; 0.2500 kg/ha,6.0
same,Preemergence herbicidal rating AMBEL,[11]; rate 0.0156 kg/ha,0.0
same,Preemergence herbicidal rating AMBEL,[11]; rate 0.0313 kg/ha,0.0
same,Preemergence herbicidal rating AMBEL,[11]; rate 0.0625 kg/ha,0.0
same,Preemergence herbicidal rating AMBEL,[11]; rate 0.1250 kg/ha,0.0
same,Preemergence herbicidal rating AMBEL,[11]; rate 0.2500 kg/ha,4.0
same,Preemergence herbicidal rating IPOHE,[12]; rate 0.0156 kg/ha,0.0
same,Preemergence herbicidal rating IPOHE,[12]; rate 0.0313 kg/ha,0.0
same,Preemergence herbicidal rating IPOHE,[12]; rate 0.0625 kg/ha,0.0
same,Preemergence herbicidal rating IPOHE,[12]; rate 0.2500 kg/ha,0.0
same,Herbicidal rating CYPIR,[13]; 0.1250 kg/ha,2.0
same,Herbicidal rating CYPIR,[13]; 0.2500 kg/ha,5.0
same,Preemergence herbicidal rating ZEAMX,[14]; rate 0.0156 kg/ha,0.0
same,Preemergence herbicidal rating ZEAMX,[14]; rate 0.0313 kg/ha,0.0
same,Preemergence herbicidal rating ZEAMX,[14]; rate 0.0625 kg/ha,0.0
same,Preemergence herbicidal rating ZEAMX,[14]; rate 0.1250 kg/ha,0.0
same,Preemergence herbicidal rating ZEAMX,[14]; rate 0.2500 kg/ha,2.0
